# Patent US6639089B2, “Anticancer agents, perfumes or foods and drinks” (Soda Aromatic Co., Ltd., priority 2001, dated 2003)
# Where two headings read alike, the source gives them in different places.
# Assays:
# [1] = tested on: melanoma cell line B16BL6; experiment: Cancer cell mobility test (cancer invasion inhibitory action), Boyden double chamber with Matrigel/fibronectin; format: cell-based; conditions: for Tumor Invasion (cell/mm^2) 5 μM / Tumor Invasion (cell/mm^2) 20 μM: administered to cells 18 hours in advance, B16BL6, counted after 3.5 hours; for activity at 20 µM: Mus musculus
# Experimental: (§1) A Boyden double chamber was used, in which a porous film with 8 μm pores was placed, the upper surface of the porous film being coated with Matrigel as a reconstructed membrane, the lower surface of the porous film being coated with fibronectin as an extracellular matrix. In the upper compartment of the chamber, 200,000 cells of melanoma cell line B16BL6, a type of skin cancer, were inoculated, and after 3.5 hours, Diff Quick staining was performed and the number of invasive cancer cells invading the lower compartment was counted using a CCD camera/multibioscanner. The compounds of the present invention were administered to cancer cells for 18 hours in advance at amounts of 5 μM and 20 μM.
# [2] = tested on: human fibrosarcoma cell line HT1080; experiment: as above; format: cell-based; conditions: for Tumor Invasion (cell/mm^2) 5 μM / Tumor Invasion (cell/mm^2) 10 μM: administered to cells 18 hours in advance, HT1080, counted after 3.5 hours; for Cell Invasion Rate at 10 μM (%): relative to no addition = 100%, lower value = higher inhibition
# Experimental: as §1, with “of human fibrosarcoma” for “of melanoma”, “line HT1080” for “line B16BL6, a type of skin cancer,”, “and 10” for “and 20”
# [3] = tested on: B-16 melanoma cell line BL; experiment: Cancer metastasis inhibitory action test (in vivo), lung metastasis after caudal vein injection of melanoma cells; conditions: lungs on day 14, mean of 6 mice
# Experimental: Cancer cells of B-16 melanoma cell line BL were incubated in a 5% CO2 incubator using an MEM culture medium (containing 10% FBS), and the individual cells were dissociated with a 2.5% trypsin solution. The melanoma cells were injected into the caudal vein of BDF1 mice (SPF). The number of cells injected was 2×10^5/0.2 ml/mouse. As test compounds for cancer metastasis inhibitory action, 15-hydroxypentadecanoic acid, 15-pentadecanolide, and 5-cyclohexadecen-1-one were used, and as a positive control compound, Mitomycin Kyowa S (manufactured by Kyowa Hakko Kokyo Co., Ltd.) was used. The test compounds and the positive control compound were dissolved or suspended in olive oil and administered as shown in Table 5 below. (In the case of intravenous administration, micellisation was performed using Tween before administration.) The dosage of the test compounds was 100 mg/kg each time in the case of peritoneal administration, and 10 mg/kg each time in the case of intravenous administration. The dosage of Mitomycin Kyowa S as the positive control compound was 0.5 mg/kg each time by peritoneal administration.
# From day 10 post-implant onward, metastatic cancer cells of mice in the satellite group were observed, and on day 14 when the size of the cells was believed to be suitable for evaluation, the mice were sacrificed and the lungs were enucleated. The number of metastatic cancer cells was then counted.
# [4] = tested on: melanoma cell line B16BL6; conditions: comparison derivatives of L-ascorbic acid (JP-A-8-291075); cited from earlier work
# [5] = tested on: Rat spontaneous mammary cancer cells (SST-2); experiment: Cancer metastasis inhibitory action test (in vivo), lung metastasis of subcutaneously implanted SST-2; conditions: day 7 pre-implant to day 34 post-implant; for Average number of metastatic colonies formed: lung, after 35 days; for Lung weight / Subcutaneous tumor weight: sacrifice after 35 days
# Experimental: Rat spontaneous mammary cancer cells (SST-2) (1×10^5 cells) were subcutaneously implanted in the backs of Wister male rats (5 rats for each group). After 35 days, the rats were sacrificed, and the lung weight and the number of colonies formed were measured to observe the extent of lung metastasis of the SST-2. With respect to the groups to which 5-cyclohexadecen-1-one as the compound of the present invention was administered, 20 mg/rat and 5 mg/rat were orally administered and subcutaneously injected, from day 7 pre-implant to day 34 post-implant, and the subcutaneous tumor weight, the lung weight, and the number of metastatic colonies formed were compared with those of the control group, to which no treatment was provided.
# [6] = tested on: adenocarcinoma 755 cell line; experiment: Test for action of killing cancer (in vivo), subcutaneous tumor weight; design: species or system mice; conditions: subcutaneous injection daily at 10 mg/kg for 5 days; tumors excised day 10 post-implant; control group 9.0 g
# Experimental: In the backs of 6-week-old mice (first filial hybrid of C57BL/6 and DBA/2), 10^6 cells of adenocarcinoma 755 cell line were subcutaneously implanted. After 24 hours, a solution in which each sample was suspended, at a concentration of 50 mg/ml, in a physiological saline solution of 0.25% surfactant Nikkol HCO-60 (manufactured by Nikko Chemicals Co., Ltd.; polyoxyethylene (40) hydrogenated castor oil), was subcutaneously injected into a group of 8 mice, daily at 10 mg/kg for 5 days. On day 10 post-implant of adenocarcinoma 755 cells, the mice were sacrificed and tumors were excised. The average weight (g) of the tumors was obtained. As a result, the average weight of the control group was 9.0 g, while the average weight of the group to which 5-cyclohexadecen-1-one had been administered was as small as 1.9 g. The significant action of killing cancer was thus confirmed.
# [7] = B16-BL6, read-out: Cell Invasion Rate at 20 μM (%)
# [8] = Peritoneal administration, 100 mg/kg each time
# [9] = B16-BL6, 20 μM, relative to no addition = 100%, lower value = higher inhibition, read-out: Cell Invasion Rate at 20 μM (%)
# [10] = Subcutaneous injection 5 mg/rat
# [11] = Subcutaneous injection 20 mg/rat
Compound,Tumor Invasion (cell/mm^2) 5 μM [1],Tumor Invasion (cell/mm^2) 20 μM ([1]; 20 μM),Tumor Invasion (cell/mm^2) 5 μM [2],Tumor Invasion (cell/mm^2) 10 μM [2],Cell Invasion Rate at 10 μM (%) [2],"activity at 20 µM [1, 9]",also measured
O=C(O)CCCCCCCCCCCO [12-hydroxydodecanoic acid],324 ± 23 cell/mm^2,246 ± 30 cell/mm^2,,,,,"activity at 20 µM [1, 7]: 48.9%"
"CNC(=O)[C@@H](NC(=O)[C@H](CC(C)C)[C@H](O)C(=O)NO)C(C)(C)C [Marimastat, reference compound]",,,269 cell/mm^2,172 cell/mm^2,42.6%,,
O=C(O)CCCCCCCCCCCCCCO [15-hydroxypentadecanoic acid],289 ± 45 cell/mm^2,135 ± 11 cell/mm^2,,,,26.8%,"Number of metastatic cells [3, 8]: 78.0"
O=C1CCCCCCCCCCCC(=O)OCCO1 [Ethylene tridecanedioate],,,226 cell/mm^2,84 cell/mm^2,16.0%,,
O=C1CCCCCCCCCCCCCCCO1 [16-hexadecanolide],370 ± 62 cell/mm^2,293 ± 43 cell/mm^2,,,,58.3%,
O=C1O[C@H]([C@@H](O)CO)C(O)=C1OP(=O)(O)O [L-ascorbyl 2-phosphate],,,,,,,concentration at which a 25% cancer cell invasion inhibition was obtained [4]: approximately 280 μM
O=C(O)CCCCCCCCCCCC(=O)CCCO [16-hydroxy-13-oxohexadecanoic acid],,,214 cell/mm^2,121 cell/mm^2,31.8%,,
O=C1CCCC=CCCCCCCCCCC1 [5-cyclohexadecen-1-one],285 ± 36 cell/mm^2,143 ± 14 cell/mm^2,,,,31.6%,"Average number of metastatic colonies formed ([5]; Oral administration 5 mg/rat): 28.4; Lung weight ([5]; Oral administration 5 mg/rat): 1.5 g; Subcutaneous tumor weight ([5]; Oral administration 5 mg/rat): 46.4 g; Average number of metastatic colonies formed ([5]; Oral administration 20 mg/rat): 17.5; Lung weight ([5]; Oral administration 20 mg/rat): 1.4 g; Subcutaneous tumor weight ([5]; Oral administration 20 mg/rat): 44.7 g; Average number of metastatic colonies formed [5, 10]: 15.7; Lung weight [5, 10]: 1.3 g; Subcutaneous tumor weight [5, 10]: 43.5 g; Average number of metastatic colonies formed [5, 11]: 10.9; Lung weight [5, 11]: 1.1 g; Subcutaneous tumor weight [5, 11]: 42.0 g; average weight of the tumors [6]: 1.9 g; Number of metastatic cells [3, 8]: 35.6"
"CO[C@@]12[C@H](COC(N)=O)C3=C(C(=O)C(C)=C(N)C3=O)N1C[C@@H]1N[C@@H]12 [Mitomycin, reference compound]",,,,,,,"Number of metastatic cells ([3]; Peritoneal administration, 0.5 mg/kg each time, 3 times on day of implantation): 21.2"
O=C1CCCCCCCCCCCCCC1 [Cyclopentadecanone],459 ± 39 cell/mm^2,491 ± 35 cell/mm^2,,,,,"activity at 20 µM [1, 7]: 109%"
11(12)-pentadecen-15-olide,234 ± 17 cell/mm^2,146 ± 31 cell/mm^2,,,,,"Cell Invasion Rate at 20 μM (%) ([1]; 20 μM, relative to no addition = 100%, lower value = higher inhibition): 29.0%"
CCOC(=O)CCCCCCCCCC=CCCCO [ethyl-15-hydroxy-11(12)-pentadecenoate],,,129 cell/mm^2,106 cell/mm^2,28.6%,,
CCCCCCCCCCCCCCCC(=O)OC[C@H](O)[C@H]1OC(=O)C(O)=C1O [L-ascorbyl 6-O-palmitate],,,,,,,concentration at which a 25% cancer cell invasion inhibition was obtained [4]: approximately 110 μM
O=C1CCCCCCCC=CCCCCCCO1 [9-hexadecen-16-olide],257 ± 42 cell/mm^2,113 ± 19 cell/mm^2,,,,22.5%,
CCCCCCCCCCCC1CCCC(=O)O1 (centres unmarked) [5-hexadecanolide],,,144 cell/mm^2,111 cell/mm^2,27.5%,,
12-oxahexadecen-16-olide,,,218 cell/mm^2,109 cell/mm^2,20.8%,,
O=C(O)CCCCCCCCCCCCCCCO [16-hydroxyhexadecanoic acid],301 ± 47 cell/mm^2,199 ± 32 cell/mm^2,,,,,"activity at 20 µM [1, 7]: 39.6%"
O=C1CCCCCCCCCCCO1 [12-dodecanolide],405 ± 38 cell/mm^2,461 ± 67 cell/mm^2,,,,91.7%,
O=C1CCCCCCCCCCCCCCO1 [15-pentadecanolide],386 ± 26 cell/mm^2,324 ± 27 cell/mm^2,,,,64.4%,"Number of metastatic cells ([3]; Intravenous administration, 10 mg/kg each time, 3 times on day of implantation): 52.2; Number of metastatic cells [3, 8]: 134.3"
O=C(O)CCCCCCCCCCC(=O)CCCO [15-hydroxy-12-oxopentadecanoic acid],268 ± 34 cell/mm^2,119 ± 25 cell/mm^2,,,,23.7%,
